Measurements from patent publication US20220079993A1, “NON-NATURALLY OCCURRING THERMOGENIC ADIPOCYTES, METHODS OF MAKING, AND METHODS OF USE THEREOF” (University of Georgia Research Foundation, Inc., priority 2019, published 2022).
Counter-ions that a name gives are not always drawn. Like-named read-outs stand apart in the source and are kept apart here.

How the values were obtained:
[1] = test system: beige adipocytes; assay: High-throughput primary screen, lipolysis assay (glycerol release), 384-well; assay type: cell-based, human; details: 20 μM; for % Control (relative levels of glycerol release): 24 hours of drug treatment, vs untreated beige adipocytes
Method: ADSCs were seeded at 5000 cell/cm^2 in 12-well plates, grown for 5 days and then induced to differentiate into GC for 20 days. […] Cells were treated with forskolin (20 μM) for indicated time periods and supernatant samples were collected. Lipolysis assay was performed with free glycerol reagent (Sigma, F6428-40ML), according to manufacturer instructions.
ADSCs were plated in 384-well plates at a density of 5000 cell/cm2 and grown to confluency over ˜4 days. Cells were then differentiated to beige adipocytes using B-8 medium for 21 days. All cell culture and incubations in the 384-well format were done at 37° C. and 5% CO2. […] The use of FDA-approved drugs may allow for re-purposing for therapeutic use.
(§1) Lipolysis assays were performed after 24 hours of drug treatment by measuring free glycerol released in the 384-well format, using the procedure described above. Absorbance for each compound was normalized to untreated control samples for each plate and calculated as a percent of the control. Cut-offs for “activating” and “inhibiting” compounds were set at 2-fold. Validation assays were performed for select compounds at a range of concentration doses.

[2] = test system: beige adipocytes; assay: Lipolysis validation assays of primary hits at three concentrations; assay type: cell-based, human; set-up: % of Control (1) / % of Control (2) / % of Control (3) / % of Control (4): unit of the concentration uncertain; details: for activity at 2.2 µM: Conc. 2.2 µM; for activity at 6.7 µM: Conc. 6.7 µM; for activity at 20 µM: Conc. 20 µM; for activity at 2200 µM: Conc. 2.2 mM
Method: ADSCs were seeded at 5000 cell/cm^2 in 12-well plates, grown for 5 days and then induced to differentiate into GC for 20 days. Prior to the assay, cells were washed in DPBS twice and then incubated with DMEM with 2% fatty-acid free BSA (Santa Crus, sc-500949) and Triascin C (5 μM). Cells were treated with forskolin (20 μM) for indicated time periods and supernatant samples were collected. Lipolysis assay was performed with free glycerol reagent (Sigma, F6428-40ML), according to manufacturer instructions.
as §1
Next, lipolysis assays were performed for all 111 compounds identified in the primary screen at three different concentrations, of which twenty-four were selected for further analysis based on their newness and/or reproducibility.

[3] = Homo sapiens, Adipocyte, 24 h, read-out: % of Control (2)
[4] = Homo sapiens, Adipocyte, 24 h, read-out: % of Control (4)
[5] = Homo sapiens, Adipocyte, 24 h, read-out: % of Control (3)
[6] = Homo sapiens, Adipocyte, 24 h, read-out: % of Control (1)

Compound | % Control (relative levels of glycerol release) [1] [% control] | activity at 2.2 µM [2, 3] [%] | activity at 2.2 µM [2, 4] [%] | activity at 6.7 µM [2, 3] [%] | activity at 6.7 µM [2, 5] [%] | activity at 6.7 µM [2, 4] [%] | activity at 20 µM [2, 6] [%] | activity at 20 µM [2, 3] [%] | activity at 20 µM [2, 5] [%] | activity at 20 µM [2, 4] [%] | activity at 2200 µM [2, 6] [%] | activity at 2200 µM [2, 5] [%] | activity at 6.7 µM [2, 6] [%] | other results
CC(C)(C)NCC(O)COc1cccc2c1CCC(=O)N2.Cl (stereo not drawn) [Carteolol HLC] | 32.31 | – | – | – | – | – | – | – | – | – | – | – | – | –
CC(C)NC[C@H](O)c1ccc(O)c(O)c1.O=C(O)C(O)C(O)C(=O)O [R(+)-Isoproterenol (+)-bitartrate] | 363.04 | – | – | – | – | – | – | – | – | – | – | – | – | –
CNC(=O)c1ccc(C)c(-n2c(C)cc(OCc3ccc(F)cc3F)c(Br)c2=O)c1 [PH-797804] | 38.23 | – | – | – | – | – | – | – | – | – | – | – | – | –
Nc1nc(CC(=O)Nc2ccc(CCNC[C@H](O)c3ccccc3)cc2)cs1 [Mirabegron] | 211.65 | 198 | 131 | 162 | 168 | 192 | 200 | 211 | 65 | 201 | 142 | 172 | – | Outcome in the primary screen (glycerol release), in words ([1]; 24 hours, cut-offs at 2-fold): efficacy in the HTS; activity at 6700 µM ([2]; Homo sapiens, Adipocyte, 24 h, Conc. 6.7 mM, read-out: % of Control (1)): 203%
Cc1[nH]c(=O)c(C#N)cc1-c1ccncc1 [Milrinone] | – | 117 | 170 | 154 | 116 | 142 | 168 | 205 | 171 | 185 | 99 | 126 | 236 | –
CCc1cnn2c(NCc3ccc[n+]([O-])c3)cc(N3CCCC[C@H]3CCO)nc12 [Dinaciclib] | – | 232 | 179 | 204 | 149 | 129 | 291 | 246 | 60.7 | 262 | 175 | 193 | 180 | –
CO[C@H]1CC[C@@H](O[C@H]2C[C@H]([C@]3(C)CC[C@]4(C[C@H](O)[C@@H](C)[C@@H]([C@@H](C)/C=C(\C)C(=O)[C@H](C)C[C@H](C)C(=O)O)O4)O3)O[C@]3(O[C@@H]([C@H]4O[C@@](O)(CO)[C@H](C)C[C@@H]4C)C[C@@H]3C)[C@@H]2C)O[C@@H]1C [Nanchangmycin] | – | – | – | – | – | – | – | – | – | – | – | – | – | % of Control (1) ([2]; Conc. 2.2 (unit uncertain)): 259.29 % of Control; % of Control (2) ([2]; Conc. 2.2 (unit uncertain)): 209.65 % of Control; % of Control (3) ([2]; Conc. 2.2 (unit uncertain)): 192.42 % of Control; % of Control (4) ([2]; Conc. 2.2 (unit uncertain)): 124.48 % of Control; % of Control (1) ([2]; Conc. 6.7 (unit uncertain)): 196.07 % of Control; % of Control (2) ([2]; Conc. 6.7 (unit uncertain)): 104.94 % of Control; % of Control (3) ([2]; Conc. 6.7 (unit uncertain)): 147.69 % of Control; % of Control (4) ([2]; Conc. 6.7 (unit uncertain)): 106.09 % of Control; % of Control (1) ([2]; Conc. 20 (unit uncertain)): 147.14 % of Control; % of Control (2) ([2]; Conc. 20 (unit uncertain)): 168.94 % of Control; % of Control (3) ([2]; Conc. 20 (unit uncertain)): 98.9 % of Control; % of Control (4) ([2]; Conc. 20 (unit uncertain)): 168.85 % of Control
C[C@@H]1CC(=O)NN=C1c1ccc(NN=C(C#N)C#N)cc1 [Levosimendan] | – | 163 | 236 | 189 | 211 | 246 | 261 | 280 | 247 | 340 | 215 | 189 | 197 | –
O=C(Nc1c[nH]nc1-c1nc2ccc(CN3CCOCC3)cc2[nH]1)NC1CC1 [AT9283] | – | 115 | 133 | 152 | 161 | 177 | 132 | 144 | 202 | 159 | 163 | 142 | 151 | –
CC(C)NC[C@@H](O)c1ccc(O)c(O)c1.O=C(O)C(O)C(O)C(=O)O [S(−)-Isoproterenol (+)-bitartrate] | 367.84 | – | – | – | – | – | – | – | – | – | – | – | – | –
C[n+]1cc2c3c(ccc2c2ccc4cc5c(cc4c21)OCO5)OCO3 [Sanguinarine] | – | 142 | 121 | 198 | 128 | 101 | 185 | 155 | 133 | 160 | 179 | 71.3 | 218 | –
CNC[C@H](O)c1cccc(O)c1 [Phenylephrine HCl] | – | 253 | 240 | 266 | 240 | 232 | 353 | 373 | 248 | 232 | 338 | 221 | 271 | –
Oc1ccc(-c2nc(-c3ccc(F)cc3)c(-c3ccncc3)[nH]2)cc1 [SB202190 (FHPI)] | 34.88 | – | – | – | – | – | – | – | – | – | – | – | – | –
COC1(C2=NCCN2)COc2ccccc2O1.Cl (stereo not drawn) [RX 821002 hydrochloride] | 30.77 | – | – | – | – | – | – | – | – | – | – | – | – | –
CC(=O)Nc1ccccc1 [Acetanilide] | – | 377 | 119 | 332 | 246 | 249 | 298 | 295 | 253 | 258 | 317 | 251 | 252 | –
CC(Oc1c(Cl)cccc1Cl)C1=NCCN1 (stereo not drawn) [Lofexidine HCl] | – | 115 | 91.4 | 176 | 180 | 149 | 205 | 200 | 148 | 191 | 104 | 119 | 122 | –
CCC(NC(C)C)C(O)c1ccc(O)c(O)c1 (stereo not drawn) [Isoetharine Mesylate] | – | 307 | 106 | 301 | 339 | 247 | 417 | 304 | 204 | 260 | 294 | 258 | 373 | –
CC(C)C[C@H](NC(=O)CNC(=O)c1cc(Cl)ccc1Cl)B1OC(=O)C(CC(=O)O)(CC(=O)O)O1 [MLN9708] | – | 139 | 114 | 228 | 176 | 115 | 138 | 173 | 117 | 90 | 251 | 205 | 198 | –
CC(C)NCC(O)c1cc(O)cc(O)c1 (stereo not drawn) [Metaproterenol Sulfate] | – | 298 | 305 | 412 | 293 | 283 | 305 | 293 | 308 | 274 | 327 | 291 | 311 | –
CCOC(=O)C1=C(C)NC(C)=C(C(=O)OC)C1c1cccc(Cl)c1Cl (stereo not drawn) [Felodipine] | – | 220 | 206 | 241 | 228 | 256 | 291 | 274 | 244 | 245 | 243 | 203 | 284 | –
CC(C)NCC(O)c1ccc(O)c(O)c1.Cl (racemic) [(±)-Isoproterenol hydrochloride] | 389.02 | – | – | – | – | – | – | – | – | – | – | – | – | –
